Data set [1] deals with RwDmhA (1b) (Rhizorhabdus wittichii, UniProt A0A067XIQ6). Briefly: biochemical. As to conditions: for IC50: 30 nM enzyme, 60 min, 37 °C.
The target of data set [2] is T1, BsAcuC (2c) (Bacillus subtilis, UniProt P39067).
T1 construct: made in house; host or cells: E. coli BL21 (DE3)
T1 sequence (P39067 1-387): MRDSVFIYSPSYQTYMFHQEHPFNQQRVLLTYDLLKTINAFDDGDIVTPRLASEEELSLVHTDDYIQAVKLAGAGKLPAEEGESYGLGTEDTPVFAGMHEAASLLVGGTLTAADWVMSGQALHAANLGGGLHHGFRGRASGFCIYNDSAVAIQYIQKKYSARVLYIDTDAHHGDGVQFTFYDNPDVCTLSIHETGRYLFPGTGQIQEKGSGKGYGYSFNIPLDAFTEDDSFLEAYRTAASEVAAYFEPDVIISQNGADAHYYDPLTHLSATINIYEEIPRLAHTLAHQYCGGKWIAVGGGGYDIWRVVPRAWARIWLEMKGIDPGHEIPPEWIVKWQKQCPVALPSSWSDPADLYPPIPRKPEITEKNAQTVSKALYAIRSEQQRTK
Briefly: Inhibitor screening assay (10 µM or 1 µM). Type of data set: biochemical. The text has this: Data was transformed to relative enzyme activity (%) compared to control wells without inhibitors.

The target in data set [3] is LpApaH (3) (Legionella pneumophila, UniProt A0A2S6EWV0). Briefly: biochemical.
Data set [4] concerns the target KpHdaH (1b) (Klebsiella pneumoniae, UniProt A0A377Z5F6). Briefly: biochemical. As to conditions: for IC50: 15 nM enzyme, 60 min, 37 °C.
The target in data set [5] is T1, BsAcuC (2c). Briefly: Dose-response inhibition assay. As to conditions: dose-response inhibition assay. Type of data set: biochemical. The text has this:
Data was transformed to relative enzyme activity (%) compared to control wells without inhibitor, and fitted to sigmoidal functions with variable slope (Eqs. 3, 4 parameters, h: Hill slope) to afford IC50 values. Assuming fast-on/fast-off competitive inhibition, the Cheng–Prusoff equation (Eq. 4) was employed to transform IC50 data into inhibitory constants (Ki), with KM values as determined previously.3 Res.activity=Res.activitybottom+Res.activitytop−Res.activitybottom/1+10^(logIC50−logI)h 4 Ki=IC50/1+[S]/KM

Data set [6] concerns the target LcApaH (3) (Legionella cherrii, UniProt A0A0W0SGS1). Briefly: biochemical. The note with it: for IC50: 0.5 nM enzyme, 30 min, 37 °C.
Data set [7] addresses PrpH (propanil hydrolase) of Rhizorhabdus sp. (Rhizorhabdus sp.). Briefly: crystal structure.
Data set [8] deals with PsApaH_(1-342) (4) (Pseudomonas sp.). Briefly: crystal structure.
The target in data set [9] is Pseudomonas sp. acetylpolyamine amidohydrolase ApaH (Pseudomonas sp.). Briefly: SEC. (In general: Size exclusion chromatography separates by hydrodynamic size, large species first.)
Data set [10] concerns the target Δ20-37 KpHdaH (Klebsiella pneumoniae).
Data set [11] concerns the molecule itself. Briefly: crystal structure.
The target in data set [12] is DmhA (dimethoate hydrolase) of Rhizorhabdus wittichii (Rhizorhabdus wittichii). Briefly: enzyme kinetics with substrate in.
Data set [13] addresses Pseudomonas sp. acetylpolyamine amidohydrolase ApaH (Pseudomonas sp.). Briefly: enzyme kinetics with substrate in.
In data set [14] the target is T2, Legionella pneumophila acetyl-polyamine aminohydrolase (Legionella pneumophila).
T2 sequence: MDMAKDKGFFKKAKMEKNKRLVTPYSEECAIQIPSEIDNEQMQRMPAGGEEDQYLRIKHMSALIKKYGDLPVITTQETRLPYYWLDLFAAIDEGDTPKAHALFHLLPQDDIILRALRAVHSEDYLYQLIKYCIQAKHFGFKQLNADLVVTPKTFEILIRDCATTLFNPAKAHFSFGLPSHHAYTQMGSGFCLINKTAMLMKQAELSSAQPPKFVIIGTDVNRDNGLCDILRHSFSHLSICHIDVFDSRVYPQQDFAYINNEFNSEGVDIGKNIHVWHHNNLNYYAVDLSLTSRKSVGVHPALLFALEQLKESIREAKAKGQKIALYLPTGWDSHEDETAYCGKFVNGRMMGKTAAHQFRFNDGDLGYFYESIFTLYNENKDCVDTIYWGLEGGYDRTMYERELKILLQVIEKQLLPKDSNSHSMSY
Briefly: enzyme kinetics with substrate inhibition (Fluor-de-Lys assay).

Data set [15] addresses T3, Legionella cherrii acetyl-polyamine aminohydrolase (Legionella cherrii).
T3 sequence: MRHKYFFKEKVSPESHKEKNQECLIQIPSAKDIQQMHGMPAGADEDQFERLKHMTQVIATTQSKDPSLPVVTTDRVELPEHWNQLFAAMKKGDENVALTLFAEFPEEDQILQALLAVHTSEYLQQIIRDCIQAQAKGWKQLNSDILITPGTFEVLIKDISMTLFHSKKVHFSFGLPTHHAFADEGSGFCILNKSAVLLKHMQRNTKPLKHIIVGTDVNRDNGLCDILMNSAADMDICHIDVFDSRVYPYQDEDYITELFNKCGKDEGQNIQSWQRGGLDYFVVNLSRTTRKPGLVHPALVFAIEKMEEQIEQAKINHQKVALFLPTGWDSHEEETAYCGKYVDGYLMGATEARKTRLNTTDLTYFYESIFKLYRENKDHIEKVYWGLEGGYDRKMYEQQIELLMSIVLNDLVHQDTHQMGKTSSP
The data set is described as above.

Setting [16] is: Log[IC50(M)], decadic log of IC50, 60 µM QPKKac.

With `O=C(CCCCCCC(=O)Nc1ccccc1)NO` [SAHA, suberoylanilide hydroxamic acid], the Ki in [1] is 41.6 nM; in [3] (Ki) it was 230 nM; in [4] (Ki, calculated using the Cheng–Prusoff equation, 60 µM QPKKac) it was 22.4 nM; in [6] (Ki, calculated using the Cheng–Prusoff equation, 40 µM LGKac) it was 307 nM. Also, the IC50 is 1.01e-07 M in [1] (IC50, 60 µM QPKKac); 1e-07 M in data set [1] (setting [16]); 6.69e-07 M in data set [3] (IC50); 6.61e-07 M in data set [3] (Log[IC50(M)]); 9.71e-08 M in [4] (IC50, 60 µM QPKKac); 9.77e-08 M in [4] (setting [16]). Further, the IC50 in [6] (IC50, 40 µM LGKac) is 8.09e-07 M; in [6] (Log[IC50(M)], decadic log of IC50, 40 µM LGKac) it was 8.13e-07 M. Further, the remaining activity at 1 µM in data set [2] (1 µM inhibitor, mean of n = 2, 40 µM LGKac) was 84.7%; in [2] (1 µM inhibitor, single measurements (two columns), 40 µM LGKac, 60 min, 37 °C) it was 83.2%; in data set [2] (BsAcuC (2c), inhibitor 1 µM, individual replicates) it was 83.2%; in [2] (BsAcuC (2c), inhibitor 1 µM, mean), 84.7%. The remaining activity at 10 µM in [2] (10 µM inhibitor, mean of n = 2, 40 µM LGKac) came to 60.6%; in data set [2] (10 µM inhibitor, single measurements (two columns), 40 µM LGKac, 60 min, 37 °C), 56.2%; in data set [2] (BsAcuC (2c), inhibitor 10 µM, individual replicates) it was 56.2%; in data set [2] (BsAcuC (2c), inhibitor 10 µM, mean) it was 60.6%. In addition, the “inhibition of BsAcuC (2c) in the initial screen, in words” value in data set [2] (pre-screening at 10 µM or 1 µM inhibitor) is “only weakly inhibited”. In [5], the “inhibition of BsAcuC (2c), in words” value is given as “not detecting any inhibition”.
As to “PrpH (propanil hydrolase) of Rhizorhabdus sp. (enzyme)”, the stoichiometry N in data set [7] came out at 4.
In data set [8], PsApaH_(1-342) (4) (domain or fragment) showed a stoichiometry N of 2.
The molecule “Pseudomonas sp. acetylpolyamine amidohydrolase ApaH (enzyme)” gave a stoichiometry N in data set [9] of 2.
As to “Δ20-37 KpHdaH (from UniProt A0A377Z5F6 1-371) (enzyme)”, the stoichiometry N in [10] came out at 2.

B1: Klebsiella pneumoniae HdaH (enzyme, UniProt A0A377Z5F6 1-371, looked up)
chain: MKRKTGFFFDERCFWHSTGLHAVTLPVGGWVQPPAGGGHAESPETKRRMKNLMDVSGLTPQLALRSAAPASLEDLRRIHPDSYLERFKAISDNGGGMLGKEAPLGPGSYEIACLSAGLACAAVEAVLKGELDNAYSLSRPPGHHCLPDQSMGFCFLANIPIAVERAKAQLGLGKVAIIDWDVHHGNGTQHIYLQRDDVLTISLHQDGCFPPGYAGEDDRGVGAGEGYNINIPLLAGAGDDSWRYALETIVIPALARFEPELIIIACGYDANAMDPLARMQLHSDSFRAMTEQVQQAADRLCGGKLVMVHEGGYAESYVPFCGLAVMEALSGIRTEVQDPLLEFIQQQQPRATFAQFQRQAIDRLAQQFGLQ
notes: also called KpHdaH (1b); KpHdaH
With B1, the “stoichiometry N” value in data set [11] stood at 4.
In the case of QPKK [p53-peptide QPKKac], the Ki in [12] worked out at 154000 nM; in data set [13], 122000 nM; in data set [14] it was 44000 nM; in data set [15], 13000 nM.

B2: DmhA (dimethoate hydrolase) of Rhizorhabdus wittichii (enzyme)
chain: MARTGFYTDERTFWHATGMQALFLPVGDWVQPPNGTAGADTPDSKRRLLNLAHASGLIRKLTLPEAIPATVEDVCRVHPRDYIDRFKATSDAGGGDLGHLAPFSKGGYEIAMLSCGLAIAAVDDVLSGKVDNAYALCRPAGHHCLADTPMGFCLLANIPIAIEAAKARHGISRVAVVDWDVHHGNGTQSIFYDRADVLTISIHQDRCFPPGYSGAEDRGEGAGLGYNLNVPLPAGAGHDAYVQAFDDIVVPALDDFKPDLIIVASGLDANSVDPLARMLLHSESYRLLTQKMLDAAARLCGGKLVVVHEGGYAEAYVPFCGHALLEALSGERTAVVDPVLEMAEAWQPGPEAAAFHRQWIDRLVADLGK
notes: also called RwDmhA (1b); RwDmhA
Turning to B2, in data set [11], the “stoichiometry N” value was 4.

One may read the IC50 as the point on the concentration scale where inhibition reaches its midpoint. For orientation: remaining activity means the activity still measured, relative to the control. A higher remaining activity goes with much activity left. The stoichiometry N is a count of units in the complex or per binding partner.
